Experiments:
Assay type in all cases: in vivo
[1] = system: diamondback moth (Plutella xylostella); experiment: Insecticidal effect on diamondback moth (Test Example 1); conditions: mortality judged according to the criterion shown in Test Example 1
Method in brief: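 Triplicate groups of 10 insects: eggs laid on Chinese cabbage seedling by adults, seedling immersed then air-dried, kept at 25° C. Day-6 hatch counts gave mortality, rated by criterion.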

[2] = system: common cutworm (Spodoptera Litura); experiment: Insecticidal effect on common cutworm (Test Example 2); conditions: 500 ppm, cabbage leaf dip, second-instar larvae, eight days after inoculation, 25° C.
Method in brief: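 After the treated material air-dries, it goes into a dish, second-instar larvae are added, and the dish is closed. Incubation runs at 25° C. On day eight, dead and living larvae are scored, and the calculated mortality is rated on an effect scale.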

[3] = system: rice leafroller (Cnaphalocrocis medinalis); experiment: Insecticidal effect on rice leafroller (Test Example 3); conditions: 500 ppm, rice lamina dip, third-instar larvae, four days after inoculation, 25° C., humidity 70%
Method in brief: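 Insecticidal effect is judged by a predefined criterion from dead/alive counts four days after infesting air-dried lamina with third-instar larvae, kept on moistened filter paper at 25° C, 70% humidity.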

Row | SMILES | Insecticidal effect on diamondback moth (Test Example 1), judged grade [1] | Insecticidal effect on common cutworm (Test Example 2), judged grade [2] | Insecticidal effect on rice leafroller (Test Example 3), judged grade [3]
1 | Cc1cc(OCC(F)(F)C(F)F)ccc1NC(=O)c1c(I)cccc1C(=O)NC(C)C [compound 447] | A (100) | B (99-90) | C (89-80)
2 | Cc1cc(OC(F)(F)Br)ccc1NC(=O)c1c(I)cccc1C(=O)NC(C)C [compound 452] | A (100) | A (100) | A (100)
3 | Cc1cc(OC(F)(F)C(F)F)ccc1NC(=O)c1c(I)cccc1C(=O)NC(C)C [compound 453] | A (100) | D (79-50) | A (100)
4 | Cc1cc(OC(F)(F)C(F)F)c(Cl)cc1NC(=O)c1c(I)cccc1C(=O)NC(C)C [compound 454] | A (100) | A (100) | A (100)
5 | Cc1cc(OC(F)(F)C(F)Cl)ccc1NC(=O)c1c(I)cccc1C(=O)NC(C)C (stereo not drawn) [compound 455] | A (100) | B (99-90) | A (100)
6 | Cc1cc(OC(F)(F)C(F)OC(F)(F)F)ccc1NC(=O)c1c(I)cccc1C(=O)NC(C)C (stereo not drawn) [compound 457] | A (100) | A (100) | B (99-90)
7 | CC(C)NC(=O)c1cccc(I)c1C(=O)Nc1ccc(C(F)(F)C(F)(F)C(F)(F)F)cc1Cl [compound 468] | A (100) | A (100) | B (99-90)
8 | Cc1cc(OC(F)F)ccc1NC(=O)c1c(I)cccc1C(=O)NC(C)C [compound 469] | A (100) | A (100) | D (79-50)
9 | Cc1cc(OC(F)F)c(Cl)cc1NC(=O)c1c(I)cccc1C(=O)NC(C)C [compound 470] | A (100) | C (89-80) | C (89-80)
10 | CC(C)NC(=O)c1cccc(I)c1C(=O)Nc1ccc(OC(F)F)c(C(F)(F)F)c1 [compound 471] | A (100) | A (100) | A (100)
11 | CC(C)NC(=O)c1c(F)cccc1C(=O)Nc1ccc(C(F)(F)C(F)(F)C(F)(F)F)cc1 [compound 473] | A (100) | A (100) | A (100)
12 | CC(C)NC(=O)c1c(F)cccc1C(=O)Nc1ccc(C(F)(C(F)(F)F)C(F)(F)F)cc1 [compound 474] | A (100) | B (99-90) | A (100)
13 | CC(C)NC(=O)c1c(F)cccc1C(=O)Nc1ccc(OC(F)(F)C(F)OC(F)(F)C(F)(F)C(F)(F)F)cc1 (stereo not drawn) [compound 476] | A (100) | A (100) | A (100)
14 | CC(C)NC(=O)c1c(F)cccc1C(=O)Nc1ccc(SC(F)(F)C(F)(F)Br)cc1 [compound 480] | A (100) | B (99-90) | A (100)
15 | CC(C)NC(=O)c1c(F)cccc1C(=O)Nc1cccc(Cl)c1Cl [compound 488] | A (100) | A (100) | A (100)
16 | Cc1c(Cl)cccc1NC(=O)c1cccc(F)c1C(=O)NC(C)C [compound 489] | A (100) | A (100) | A (100)
17 | Cc1cc(Cl)ccc1NC(=O)c1cccc(F)c1C(=O)NC(C)C [compound 490] | A (100) | A (100) | A (100)
18 | Cc1ccc(Cl)cc1NC(=O)c1cccc(F)c1C(=O)NC(C)C [compound 491] | A (100) | A (100) | A (100)
19 | Cc1cc(I)ccc1NC(=O)c1cccc(F)c1C(=O)NC(C)C [compound 492] | A (100) | A (100) | A (100)
20 | Cc1ccc(F)cc1NC(=O)c1cccc(F)c1C(=O)NC(C)C [compound 493] | A (100) | A (100) | A (100)
21 | Cc1cc(C(F)(F)C(F)(F)F)ccc1NC(=O)c1cccc(F)c1C(=O)NC(C)C [compound 495] | A (100) | A (100) | A (100)
22 | Cc1cc(C(F)(F)C(F)(F)C(F)(F)F)ccc1NC(=O)c1cccc(F)c1C(=O)NC(C)C [compound 496] | A (100) | A (100) | A (100)
23 | Cc1cc(C(F)(F)C(F)(F)C(F)(F)C(F)(F)F)ccc1NC(=O)c1cccc(F)c1C(=O)NC(C)C [compound 498] | A (100) | A (100) | A (100)
24 | Cc1c(NC(=O)c2cccc(F)c2C(=O)NC(C)C)cccc1OC(F)F [compound 499] | A (100) | A (100) | A (100)
25 | Cc1cc(OC(F)F)ccc1NC(=O)c1cccc(F)c1C(=O)NC(C)C [compound 500] | A (100) | B (99-90) | A (100)
26 | Cc1cc(OC(F)(F)C(Cl)(Cl)Cl)ccc1NC(=O)c1cccc(F)c1C(=O)NC(C)C [compound 501] | A (100) | A (100) | A (100)
27 | Cc1cc(OC(F)(F)C(F)(Cl)Cl)ccc1NC(=O)c1cccc(F)c1C(=O)NC(C)C [compound 502] | A (100) | A (100) | A (100)
